Tests used:
RPTEC/TERT1 cells [1] = assay: CellTiter-Glo cytotoxicity assay (KE3); type: cell-based, human; conditions: for BMC10, KE3: in vitro POD from KE dose-response, cell viability CellTiter-Glo, RPTEC/TERT1, 24 h treatment, n = 3; for MOE, KE3: margin of exposure: BMC10 in RPTEC/TERT1 vs human plasma/serum concentration (cmax or css)
Procedure: Cells were plated into 96-well tissue culture plates (10,000 cells per well) and were allowed to grow for 48 h (NRK-52E) respectively 10 d (RPTEC/TERT1) prior to 24 h treatment with model stressors. Stock solution for each compound (2000 µM) was prepared in growth medium and serial dilutions (1:1) were made before each experiment. At the end of the 24 h treatment, cell viability was measured using the CellTiter-Glo® assay (Promega). CellTiter-Glo® reagents and buffer were mixed under light-protected conditions and 100 µL CellTiter-Glo® solution was added directly to each well followed by 2 min incubation on an orbital shaker and 10 min incubation at room temperature in the dark to stabilize the luminescence signal. The suspension was mixed via pipetting and 50 µL were transferred into white 96-well plates (PerkinElmer Inc.). The luminescence signal was measured on a multiplate reader (Mithras LB 940; Berthold). Each assay was performed in three independent experiments carried out in triplicates.

RPTEC/TERT1 cells [2] = assay: LC-MS/MS analysis of intracellular concentration; type: in vitro ADME, human; conditions: for Intracellular concentration after recovery compared to the 24 h time-point: RPTEC/TERT1, 34 µM for 24 h, then 24 h in fresh medium; for Time course of intracellular concentration: within the 24 h treatment period (1-2 min, 1, 3, 6, 24 h), n = 3
Procedure: NRK-52E and RPTEC/TERT1 cells were seeded in 12-well plates (120,000 cells per well) and were allowed to grow for 48 h (NRK-52E) or 10 d (RPTEC/TERT1) until they reached 100% confluence. After cells achieved 100% confluence, the supernatant was aspirated, and the cells were washed twice with 1 x PBS. Cells were treated with polymyxins at a final concentration of 34 µM for 24 h. Samples were taken at five different treatment time points (1–2 min, 1, 3, 6, and 24 h). In addition, a recovery sample was taken 24 h after the end of the 24 h treatment period. To this end, the supernatant was aspirated after 24 h treatment and the cells were washed three times with 1 x PBS to remove polymyxin B or colistin residues. Fresh growth medium was added, and the cells were incubated for another 24 h. At the end of each experiment, the cells were washed 3 times with 1 x PBS and trypsinized by adding 200 µL of trypsin. Detached cells were washed with 1,000 µL 1 x PBS and the cells were transferred to LoBind™ tubes (Eppendorf). Cell count was determined using a Fuchs-Rosenthal counting chamber (Hartenstein). Cells were centrifuged for 5 min at 4°C at 10.000 rpm and the supernatant was aspirated. Cells were resuspended in 1,000 µL 1 x PBS and centrifuged for 5 min at 4°C at 10.000 rpm. After centrifugation, the supernatant was aspirated, and the cell pellet was resuspended in 250 µL ammonium acetate buffer (10 mM) and 250 µL of 30% methanol with 1% acetic acid containing polymyxin B respectively colistin as an internal standard. Cells were sonicated for 10 min and centrifuged for 5 min at 4°C at 14.000 rpm. The supernatant was transferred quantitatively into new LoBind™ tubes (Eppendorf) and dried in a centrifugal vacuum concentrator for 2–3 h. To measure compound plastic binding, the empty 12 well plates were washed with 1.5 ml acetonitrile on an orbital shaker for 2 h and supernatant was collected. For sample purification via solid phase extraction, SPE cartridges Strata-X 33 µm polymeric reversed phase, 10 mg/1 ml (Phenomenex) were used. In the conditioning step the cartridges were rinsed with 200 µL methanol (100%) and subsequently with 200 µL ddH2O to activate the sorbent bed. The dried samples were dissolved in 200 µL 1% acetic acid and transferred onto the SPE cartridge. The SPE cartridge were rinsed once with 200 µL 1% acetic acid. Impurities were removed by rinsing the cartridge once with 200 µL 10% methanol. A fresh LoBind™ tube (Eppendorf) was placed under the SPE cartridge to eluate the samples by rinsing twice with 200 µL 90% methanol containing 1% acetic acid. The samples were dried in a centrifugal vacuum concentrator for 2–3 h. All samples were stored at −20°C until LC-MS/MS analysis.
A triple quadrupole mass spectrometer equipped with a Turbo-Ion® Spray source (QTrap API 2000; AB Sciex Instruments) was used for analyses. The mass spectrometer was coupled to an Agilent 1100 HPLC system consisting of a binary pump system, a vacuum degasser and an autosampler (Agilent 1,100). […]

Substance: Colistin
- BMC10, KE3 (RPTEC/TERT1 cells [1]): 23.5 µM
- MOE, KE3 (RPTEC/TERT1 cells [1]): 2.9 – 56.0
- Intracellular concentration compared to polymyxin B (RPTEC/TERT1 cells [2]; RPTEC/TERT1, 34 µM): lower intracellular concentrations
- Intracellular concentration after recovery compared to the 24 h time-point (RPTEC/TERT1 cells [2]): declined during the 24 h off-dose recovery period
- Time course of intracellular concentration (RPTEC/TERT1 cells [2]; RPTEC/TERT1, 34 µM): continuous rise in the intracellular concentration

Substance: Polymyxin B
- BMC10, KE3 (RPTEC/TERT1 cells [1]): 14.2 µM
- MOE, KE3 (RPTEC/TERT1 cells [1]): 3.5 – 24.9
- Intracellular concentration after recovery compared to the 24 h time-point (RPTEC/TERT1 cells [2]): declined during the 24 h off-dose recovery period
- Time course of intracellular concentration (RPTEC/TERT1 cells [2]; RPTEC/TERT1, 34 µM): continuous rise in the intracellular concentration

From PMC9061999, “Application of the Adverse Outcome Pathway Concept to In Vitro Nephrotoxicity Assessment: Kidney Injury due to Receptor-Mediated Endocytosis and Lysosomal Overload as a Case Study” (Frontiers in Toxicology, 2022)
